Results from PubChem BioAssay (NCI).
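Cells were grown in 96-well plates and exposed to each compound for 48 hours at five concentrations; endpoints were interpolated linearly between bracketing concentrations, or set to the highest concentration if not reached. The concentration for 50% growth inhibition is given as GI50. TGI denotes the concentration required for complete inhibition of growth.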

Legend:
Assay in all cases: DTP human tumour cell line panel, 48 h
A549 NSCLC = tested on: A549 NSCLC
COLO 205 colon = tested on: COLO 205 colon
K-562 leukemia = tested on: K-562 leukemia
LOX IMVI melanoma = tested on: LOX IMVI melanoma
MOLT-4 leukemia = tested on: MOLT-4 leukemia
OVCAR-3 ovarian = tested on: OVCAR-3 ovarian
SF-268 CNS = tested on: SF-268 CNS
SR leukemia = tested on: SR leukemia
T-47D breast = tested on: T-47D breast
HOP-92 NSCLC = tested on: HOP-92 NSCLC

| SMILES | GI50 (A549 NSCLC) [µM] | TGI (A549 NSCLC) [µM] | GI50 (COLO 205 colon) [µM] | TGI (COLO 205 colon) [µM] | GI50 (K-562 leukemia) [µM] | TGI (K-562 leukemia) [µM] | GI50 (LOX IMVI melanoma) [µM] | TGI (LOX IMVI melanoma) [µM] | GI50 (MOLT-4 leukemia) [µM] | TGI (MOLT-4 leukemia) [µM] | GI50 (OVCAR-3 ovarian) [µM] | TGI (OVCAR-3 ovarian) [µM] | GI50 (SF-268 CNS) [µM] | TGI (SF-268 CNS) [µM] | GI50 (SR leukemia) [µM] | TGI (SR leukemia) [µM] | GI50 (T-47D breast) [µM] | TGI (T-47D breast) [µM] | GI50 (HOP-92 NSCLC) [µM] | TGI (HOP-92 NSCLC) [µM] |
| --- | --- | --- | --- | --- | --- | --- | --- | --- | --- | --- | --- | --- | --- | --- | --- | --- | --- | --- | --- | --- |
| COc1nc(N(C)O)nc(N(C)O)n1 | 1.39 | > 100 | 1.24 | > 100 | 2.94 | > 100 | 0.895 | > 100 | 0.885 | > 100 | 0.794 | > 100 | 1.16 | > 100 | 0.391 | 4.35 | 4.51 | > 100 |  |  |
| O=[N+]([O-])C1C(c2ccccc2)C12c1ccccc1-c1ccccc12 (stereo not drawn) | 1.91 | > 100 | 1.85 | 10.9 | 0.452 | > 65.9 | 0.416 | 2.47 | 0.746 | > 26.3 | 0.783 | 3.59 | 2.3 | 28 | 0.348 | 4.22 | 2.73 | 23.2 | 0.25 | 2.05 |
| Cc1c2c(nn1-c1ccc(S(=O)(=O)NC(=S)Nc3ccccc3)cc1)-c1ccccc1CC2 | > 50 | > 50 | > 50 | > 50 | > 50 | > 50 | 25.8 | > 50 | > 50 | > 50 | 36.8 | > 50 | 18.7 | > 50 | > 50 | > 50 | > 50 | > 50 | > 50 | > 50 |
| CN(C)c1cccc2c(S(=O)(=O)N[C@H]3CC[C@H]4[C@@H]5CCc6cc(O)ccc6[C@H]5CC[C@]34C)cccc12 | 2.51 | 10.7 |  |  | 1.71 | > 100 |  |  | 3.14 | > 100 | 2.33 | 6.26 | 3.03 | 15 | 2.79 | > 100 | 3.47 | 30.1 | 1.67 | 7.64 |
| COc1cccc(C2CC(C)(N3CCCC3)Oc3cc4c(cc32)OCO4)c1O (stereo not drawn) |  | > 100 |  | 39.7 |  | 41.9 |  | > 94.5 |  | > 73.4 |  | 46.1 |  | > 92.1 |  | 31.6 |  | > 100 |  | > 100 |
| N#Cc1c(-c2nc3ccccc3s2)c(=O)oc2cc(O)ccc12 |  | > 100 |  | 30.8 |  | > 100 |  | > 100 |  | > 100 |  | > 100 |  | > 100 |  | > 100 |  | 78.2 |  | 46.3 |
| CCOc1cc2ncc(C#N)c(Nc3ccc(OCc4cccc(F)c4)c(Cl)c3)c2cc1NC(=O)CC1CCSS1 (stereo not drawn) | 0.542 | 1.16 | 2.39 | > 25 | 0.902 | > 25 | 0.447 | 1.01 |  |  | 1.09 | 9.3 | 0.727 | 3.02 | 0.68 | > 25 | 0.978 | > 25 | > 11.5 | > 25 |
| COc1cc(/C(C#N)=C/c2ccc3c(c2OC)OCO3)cc2c1OCO2 | 0.0879 | > 100 | 0.0941 | 3.14 | 0.0358 | > 32.9 | 0.07 | 20.3 | 0.111 | 19.9 | 0.0272 | 0.0774 | 0.0969 | 15.8 | 0.0244 | 5.37 | 6.18 | > 83.6 | 0.211 | 15.7 |
| CCOC(=O)c1c2c(n3ccc(NC(=O)CCN4CCCC4)cc13)C(=O)c1ncccc1C2=O | 1.03 | 2.67 |  |  |  |  |  |  | 1.52 | 4.81 | 1.48 | 3.12 | 0.794 | 2.65 |  | 1.39 | 1.7 | 4.24 | 11.8 | 27.5 |
| COc1ccc(N=C2CSc3nnc(-c4cc(F)c(Cl)cc4Cl)n3N2)cc1 | 1.5 | 4.42 | 1.81 | 16 | 0.515 | 18.1 | 0.897 | 11.1 | 0.486 | 14.9 | 0.466 | 2.02 | 1.69 | 21.7 | 0.33 | 0.799 | 4.03 | 32.7 | 2.83 | 19.1 |
| COc1cc([C@H]2c3cc4c(cc3O[C@@]3(O)COC(=O)[C@@H]23)OCO4)cc(OC)c1OC |  | > 100 |  | > 100 |  | > 100 |  | > 100 |  | > 100 |  | > 100 |  | > 100 |  | > 100 |  | > 100 |  | > 100 |
| O=C(CCCCCCSc1nc(-c2ccccc2)cc(-c2ccc(Cl)cc2)n1)NO | 2.16 | 6.23 | 2.38 | 5.76 | 1.66 | 10.8 | 2.06 | 4.66 | 0.557 | 4.26 | 1.96 | 6.86 | 2.44 | 6.75 | 0.416 | 4.67 | 1.62 | 4.98 | 1.75 | 5.44 |
| O=P(O)(CCP(=O)(O)c1ccccc1)c1ccccc1 |  | > 100 |  | > 100 |  | > 100 |  | > 100 |  | > 100 |  | > 100 |  | > 100 |  | > 100 |  | > 100 |  | > 100 |
| N#Cc1c(Sc2ccccc2N)cccc1Sc1ccccc1N | 56.9 |  | 34.9 |  | 22.9 |  |  |  | 22.2 |  |  |  | 38.4 |  | 56.8 |  | 51.7 |  | 31 |  |
| COc1ccc2nc(N/N=C(\C)c3ccccn3)cc(C)c2c1 | 0.315 | 3.24 | 0.024 | 1.15 | 0.303 | 1.3 | 0.236 | 1.28 | 0.131 | 0.488 | 0.0652 | 0.215 | 0.228 | 1.46 | 0.0592 | 0.452 | 0.0766 | 1.61 | 0.169 | 2.55 |
